Results taken from patent US8916702B2 (priority 2012, dated 2014).

The molecules below were run on HCV pseudoparticles (genotype 1a HCV E1 and E2 envelope, H77C isolate) (assay: microbe, parasite or virus in culture). Conditions: Hepatitis C virus, Huh-7, 48 h, HCV pseudoparticles (genotype 1a, H77C) in Huh7 cells; average of duplicate; luciferase 2 days after infection.
Format: cell-based

Row | SMILES | EC50 [nM]
1 | CC(O)N1CCN(c2ccc(NC(=O)C(=O)NC[C@H](NC(=O)c3ccc(Nc4nc(NC5(c6ccc(Cl)cc6)CC5)nc(OCC(F)(F)F)n4)cc3)C(=O)O)cc2)CC1 (stereo partly drawn) [Compound 3271] | 1.38
2 | NC(=O)NCc1ccc(NC(=O)C(=O)NC[C@H](NC(=O)c2ccc(Nc3nc(NC4(c5ccc(Cl)cc5)CC4)nc(OCC(F)(F)F)n3)cc2)C(=O)O)cc1 [Compound 3281] | 1.29
3 | O=C(NC[C@H](NC(=O)c1ccc(Nc2nc(NC3(c4ccc(Cl)cc4)CC3)nc(OCC(F)(F)F)n2)cc1)C(=O)O)C(=O)Nc1ccc(Oc2ccncc2)cc1 [Compound 3289] | 2.53
4 | CCc1ccc(NC(=O)C(=O)NC[C@H](NC(=O)c2ccc(Nc3nc(NC4(c5ccc(Cl)cc5)CC4)nc(OCC(F)(F)F)n3)cc2)C(=O)O)cc1 [Compound 3296] | 0.24
5 | COC(=O)[C@H](CCNC(=O)C(=O)Nc1ccc(N2CCC(C(C)=O)CC2)cc1)NC(=O)c1ccc(Nc2nc(NC3(c4ccc(Cl)cc4)CC3)nc(OCC(F)(F)F)n2)cc1 [Compound 3303] | 5.59
6 | COC(=O)[C@H](CCNC(=O)C(=O)Nc1ccc(-c2cc[nH]n2)cc1)NC(=O)c1ccc(Nc2nc(NC3(c4ccc(Cl)cc4)CC3)nc(OCC(F)(F)F)n2)cc1 [Compound 3310] | 2.15

Same assay, conditions: Hepatitis C virus, Huh-7, read-out: Activity (EC50 class), HCV pseudoparticles (genotype 1a, H77C) in Huh7 cells; EC50 expressed as class A/B

Row | SMILES | EC50 [nM]
7 | CC(C)(CNC(=O)C(N)=O)CNC(=O)c1ccc(Nc2nc(NC3(c4ccccc4Cl)CC3)nc(OCC(F)(F)F)n2)cc1 [Compound 3265] | 10 to 1000
8 | O=C(NC[C@H](NC(=O)c1ccc(Nc2nc(NC3(c4ccc(Cl)cc4)CC3)nc(OCC(F)(F)F)n2)cc1)C(=O)O)C(=O)Nc1ccc(-c2ccncc2)cc1 [Compound 3266] | 0.01 to 10
9 | O=C(NC[C@H](NC(=O)c1ccc(Nc2nc(NC3(c4ccc(Cl)cc4)CC3)nc(OCC(F)(F)F)n2)cc1)C(=O)O)C(=O)Nc1ccc(Cn2cncn2)cc1 [Compound 3267] | 0.01 to 10
10 | O=C(NC[C@H](NC(=O)c1ccc(Nc2nc(NC3(c4ccc(Cl)cc4)CC3)nc(OCC(F)(F)F)n2)cc1)C(=O)O)C(=O)Nc1ccc(-n2ccnc2)cc1 [Compound 3268] | 0.01 to 10
11 | O=C(NC[C@H](NC(=O)c1ccc(Nc2nc(NC3(c4ccccc4)CC3)nc(OCC(F)(F)F)n2)cc1)C(=O)O)C(=O)Nc1ccc(Oc2ccc(F)cc2)cc1 [Compound 3269] | 0.01 to 10
12 | COc1cc(OC)nc(-c2ccc(NC(=O)C(=O)NC[C@H](NC(=O)c3ccc(Nc4nc(NC5(c6ccc(Cl)cc6)CC5)nc(OCC(F)(F)F)n4)cc3)C(=O)O)cc2)n1 [Compound 3270] | 0.01 to 10
13 | CC(O)N1CCN(c2ccc(NC(=O)C(=O)NC[C@H](NC(=O)c3ccc(Nc4nc(NC5(c6ccc(Cl)cc6)CC5)nc(OCC(F)(F)F)n4)cc3)C(=O)O)cc2)CC1 (stereo partly drawn) [Compound 3271] | 0.01 to 10
14 | Cc1ccccc1-c1ccc(NC(=O)C(=O)NC[C@H](NC(=O)c2ccc(Nc3nc(NC4(c5ccc(Cl)cc5)CC4)nc(OCC(F)(F)F)n3)cc2)C(=O)O)cc1 [Compound 3272] | 0.01 to 10
15 | Cc1nc(-c2ccc(NC(=O)C(=O)NC[C@H](NC(=O)c3ccc(Nc4nc(NC5(c6ccc(Cl)cc6)CC5)nc(OCC(F)(F)F)n4)cc3)C(=O)O)cc2)cs1 [Compound 3275] | 0.01 to 10
16 | O=C(NC[C@H](NC(=O)c1ccc(Nc2nc(NC3(c4ccc(Cl)cc4)CC3)nc(OCC(F)(F)F)n2)cc1)C(=O)O)C(=O)Nc1ccc(-n2cnnn2)cc1 [Compound 3276] | 0.01 to 10
17 | CCOCCOc1ccc(NC(=O)C(=O)NC[C@H](NC(=O)c2ccc(Nc3nc(NC4(c5ccc(Cl)cc5)CC4)nc(OCC(F)(F)F)n3)cc2)C(=O)O)cc1 [Compound 3277] | 0.01 to 10
18 | O=C(NC[C@H](NC(=O)c1ccc(Nc2nc(NC3(c4ccc(Cl)cc4)CC3)nc(OCC(F)(F)F)n2)cc1)C(=O)O)C(=O)Nc1ccc(-c2cc[nH]n2)cc1 [Compound 3278] | 0.01 to 10
19 | O=C(NC[C@H](NC(=O)c1ccc(Nc2nc(NC3(c4ccc(Cl)cc4)CC3)nc(OCC(F)(F)F)n2)cc1)C(=O)O)C(=O)Nc1ccc(Cn2cccc2)cc1 [Compound 3280] | 0.01 to 10
20 | NC(=O)NCc1ccc(NC(=O)C(=O)NC[C@H](NC(=O)c2ccc(Nc3nc(NC4(c5ccc(Cl)cc5)CC4)nc(OCC(F)(F)F)n3)cc2)C(=O)O)cc1 [Compound 3281] | 0.01 to 10
21 | O=C(NC[C@H](NC(=O)c1ccc(Nc2nc(NC3(c4ccc(Cl)cc4)CC3)nc(OCC(F)(F)F)n2)cc1)C(=O)O)C(=O)Nc1ccc(-c2ccno2)cc1 [Compound 3282] | 0.01 to 10
22 | Cn1cnnc1-c1ccc(NC(=O)C(=O)NC[C@H](NC(=O)c2ccc(Nc3nc(NC4(c5ccc(Cl)cc5)CC4)nc(OCC(F)(F)F)n3)cc2)C(=O)O)cc1 [Compound 3283] | 0.01 to 10
23 | O=C(NC[C@H](NC(=O)c1ccc(Nc2nc(NC3(c4ccc(Cl)cc4)CC3)nc(OCC(F)(F)F)n2)cc1)C(=O)O)C(=O)Nc1ccc(-c2c[nH]c(N3CCOCC3)n2)cc1 [Compound 3284] | 0.01 to 10
24 | O=C(NC[C@H](NC(=O)c1ccc(Nc2nc(NC3(c4ccc(Cl)cc4)CC3)nc(OCC(F)(F)F)n2)cc1)C(=O)O)C(=O)Nc1ccc(Cn2ccnc2)cc1 [Compound 3285] | 0.01 to 10
25 | Cc1nccn1-c1ccc(NC(=O)C(=O)NC[C@H](NC(=O)c2ccc(Nc3nc(NC4(c5ccc(Cl)cc5)CC4)nc(OCC(F)(F)F)n3)cc2)C(=O)O)cc1 [Compound 3286] | 0.01 to 10
26 | Cc1nccn1Cc1ccc(NC(=O)C(=O)NC[C@H](NC(=O)c2ccc(Nc3nc(NC4(c5ccc(Cl)cc5)CC4)nc(OCC(F)(F)F)n3)cc2)C(=O)O)cc1 [Compound 3287] | 0.01 to 10
27 | COCc1ccc(NC(=O)C(=O)NC[C@H](NC(=O)c2ccc(Nc3nc(NC4(c5ccc(Cl)cc5)CC4)nc(OCC(F)(F)F)n3)cc2)C(=O)O)cc1 [Compound 3288] | 0.01 to 10
28 | O=C(NC[C@H](NC(=O)c1ccc(Nc2nc(NC3(c4ccc(Cl)cc4)CC3)nc(OCC(F)(F)F)n2)cc1)C(=O)O)C(=O)Nc1ccc(Oc2ccncc2)cc1 [Compound 3289] | 0.01 to 10
29 | O=C(NC[C@H](NC(=O)c1ccc(Nc2nc(NC3(c4ccc(Cl)cc4)CC3)nc(OCC(F)(F)F)n2)cc1)C(=O)O)C(=O)Nc1ccc(Oc2cccnc2)cc1 [Compound 3290] | 0.01 to 10
30 | O=C(NC[C@H](NC(=O)c1ccc(Nc2nc(NC3(c4ccc(Cl)cc4)CC3)nc(OCC(F)(F)F)n2)cc1)C(=O)O)C(=O)Nc1ccc(OC2CCOCC2)cc1 [Compound 3291] | 0.01 to 10

Row | SMILES | EC50 [nM]
31 | O=C(NC[C@H](NC(=O)c1ccc(Nc2nc(NC3(c4ccc(Cl)cc4)CC3)nc(OCC(F)(F)F)n2)cc1)C(=O)O)C(=O)Nc1ccc(-c2ncco2)cc1 [Compound 3292] | 0.01 to 10
32 | CCOc1ccc(NC(=O)C(=O)NC[C@H](NC(=O)c2ccc(Nc3nc(NC4(c5ccc(Cl)cc5)CC4)nc(OCC(F)(F)F)n3)cc2)C(=O)O)cc1 [Compound 3293] | 0.01 to 10
33 | CC(C)(C)c1ccc(NC(=O)C(=O)NC[C@H](NC(=O)c2ccc(Nc3nc(NC4(c5ccc(Cl)cc5)CC4)nc(OCC(F)(F)F)n3)cc2)C(=O)O)cc1 [Compound 3294] | 0.01 to 10
34 | CC(C)c1ccc(NC(=O)C(=O)NC[C@H](NC(=O)c2ccc(Nc3nc(NC4(c5ccc(Cl)cc5)CC4)nc(OCC(F)(F)F)n3)cc2)C(=O)O)cc1 [Compound 3295] | 0.01 to 10
35 | CCc1ccc(NC(=O)C(=O)NC[C@H](NC(=O)c2ccc(Nc3nc(NC4(c5ccc(Cl)cc5)CC4)nc(OCC(F)(F)F)n3)cc2)C(=O)O)cc1 [Compound 3296] | 0.01 to 10
36 | O=C(NC[C@H](NC(=O)c1ccc(Nc2nc(NC3(c4ccc(Cl)cc4)CC3)nc(OCC(F)(F)F)n2)cc1)C(=O)O)C(=O)Nc1ccc(CC(F)(F)F)cc1 [Compound 3297] | 0.01 to 10
37 | CC(F)Oc1ccc(NC(=O)C(=O)NC[C@H](NC(=O)c2ccc(Nc3nc(NC4(c5ccc(Cl)cc5)CC4)nc(OCC(F)(F)F)n3)cc2)C(=O)O)cc1 (stereo partly drawn) [Compound 3298] | 0.01 to 10
38 | COC(=O)[C@H](CCNC(=O)C(=O)Nc1ccc(Cn2cncn2)cc1)NC(=O)c1ccc(Nc2nc(NC3(c4ccc(Cl)cc4)CC3)nc(OCC(F)(F)F)n2)cc1 [Compound 3299] | 0.01 to 10
39 | COC(=O)[C@H](CCNC(=O)C(=O)Nc1ccc(-n2ccnc2)cc1)NC(=O)c1ccc(Nc2nc(NC3(c4ccc(Cl)cc4)CC3)nc(OCC(F)(F)F)n2)cc1 [Compound 3300] | 10 to 1000
40 | COC(=O)[C@H](CCNC(=O)C(=O)Nc1ccc(Oc2ccc(F)cc2)cc1)NC(=O)c1ccc(Nc2nc(NC3(c4ccc(Cl)cc4)CC3)nc(OCC(F)(F)F)n2)cc1 [Compound 3301] | 0.01 to 10
41 | COC(=O)[C@H](CCNC(=O)C(=O)Nc1ccc(-c2nc(OC)cc(OC)n2)cc1)NC(=O)c1ccc(Nc2nc(NC3(c4ccc(Cl)cc4)CC3)nc(OCC(F)(F)F)n2)cc1 [Compound 3302] | 0.01 to 10
42 | COC(=O)[C@H](CCNC(=O)C(=O)Nc1ccc(N2CCC(C(C)=O)CC2)cc1)NC(=O)c1ccc(Nc2nc(NC3(c4ccc(Cl)cc4)CC3)nc(OCC(F)(F)F)n2)cc1 [Compound 3303] | 0.01 to 10
43 | COC(=O)[C@H](CCNC(=O)C(=O)Nc1ccc(-c2ccccc2C)cc1)NC(=O)c1ccc(Nc2nc(NC3(c4ccc(Cl)cc4)CC3)nc(OCC(F)(F)F)n2)cc1 [Compound 3304] | 0.01 to 10
44 | COC(=O)[C@H](CCNC(=O)C(=O)Nc1ccc(-c2ccc(C)cc2)cc1)NC(=O)c1ccc(Nc2nc(NC3(c4ccc(Cl)cc4)CC3)nc(OCC(F)(F)F)n2)cc1 [Compound 3305] | 0.01 to 10
45 | COC(=O)[C@H](CCNC(=O)C(=O)Nc1ccc(N2Cc3ccccc3C2)cc1)NC(=O)c1ccc(Nc2nc(NC3(c4ccc(Cl)cc4)CC3)nc(OCC(F)(F)F)n2)cc1 [Compound 3306] | 0.01 to 10
46 | COC(=O)[C@H](CCNC(=O)C(=O)Nc1ccc(-c2csc(C)n2)cc1)NC(=O)c1ccc(Nc2nc(NC3(c4ccc(Cl)cc4)CC3)nc(OCC(F)(F)F)n2)cc1 [Compound 3307] | 0.01 to 10
47 | COC(=O)[C@H](CCNC(=O)C(=O)Nc1ccc(-n2cnnn2)cc1)NC(=O)c1ccc(Nc2nc(NC3(c4ccc(Cl)cc4)CC3)nc(OCC(F)(F)F)n2)cc1 [Compound 3308] | 0.01 to 10
48 | CCOCCOc1ccc(NC(=O)C(=O)NCC[C@H](NC(=O)c2ccc(Nc3nc(NC4(c5ccc(Cl)cc5)CC4)nc(OCC(F)(F)F)n3)cc2)C(=O)OC)cc1 [Compound 3309] | 0.01 to 10
49 | COC(=O)[C@H](CCNC(=O)C(=O)Nc1ccc(-c2cc[nH]n2)cc1)NC(=O)c1ccc(Nc2nc(NC3(c4ccc(Cl)cc4)CC3)nc(OCC(F)(F)F)n2)cc1 [Compound 3310] | 0.01 to 10
50 | COC(=O)[C@H](CCNC(=O)C(=O)Nc1ccc(Cn2cccn2)cc1)NC(=O)c1ccc(Nc2nc(NC3(c4ccc(Cl)cc4)CC3)nc(OCC(F)(F)F)n2)cc1 [Compound 3312] | 0.01 to 10
51 | COC(=O)[C@H](CCNC(=O)C(=O)Nc1ccc(CN2CCCCC2)cc1)NC(=O)c1ccc(Nc2nc(NC3(c4ccc(Cl)cc4)CC3)nc(OCC(F)(F)F)n2)cc1 [Compound 3313] | 0.01 to 10
52 | COC(=O)[C@H](CCNC(=O)C(=O)Nc1ccc(CNC(N)=O)cc1)NC(=O)c1ccc(Nc2nc(NC3(c4ccc(Cl)cc4)CC3)nc(OCC(F)(F)F)n2)cc1 [Compound 3314] | 0.01 to 10
53 | COC(=O)[C@H](CCNC(=O)C(=O)Nc1ccc(OCCc2ccccn2)cc1)NC(=O)c1ccc(Nc2nc(NC3(c4ccc(Cl)cc4)CC3)nc(OCC(F)(F)F)n2)cc1 [Compound 3315] | 0.01 to 10
54 | COC(=O)[C@H](CCNC(=O)C(=O)Nc1ccc(-c2ccno2)cc1)NC(=O)c1ccc(Nc2nc(NC3(c4ccc(Cl)cc4)CC3)nc(OCC(F)(F)F)n2)cc1 [Compound 3316] | 0.01 to 10
